In ChEMBL document CHEMBL2429780, “Synthesis, antimicrobial and cytotoxic activity of 2-azetidinone derivatives of pyridyl benzimidazoles” (Med Chem Res, 2013):
Activity calls are given as the source filed them.

Tests used:
Assay type in all cases: functional, organism-based
[1] = tested on: Pseudomonas aeruginosa; assay: Antibacterial activity against Pseudomonas aeruginosa MTCC 1688 assessed as growth inhibition at 12.5 to 1000 ug/mL after 24 hrs by broth dilution assay
[2] = tested on: Candida albicans; assay: Antifungal activity against Candida albicans assessed as growth inhibition at 12.5 to 1000 ug/mL after 48 hrs by broth dilution assay
[3] = tested on: Staphylococcus aureus; assay: Antibacterial activity against Staphylococcus aureus MTCC 96 assessed as growth inhibition at 12.5 to 1000 ug/mL after 24 hrs by broth dilution assay
[4] = tested on: Streptococcus pyogenes; assay: Antibacterial activity against Streptococcus pyogenes MTCC 442 assessed as growth inhibition at 12.5 to 1000 ug/mL after 24 hrs by broth dilution assay
[5] = tested on: Aspergillus clavatus; assay: Antifungal activity against Aspergillus clavatus assessed as growth inhibition at 12.5 to 1000 ug/mL after 48 hrs by broth dilution assay
[6] = tested on: Escherichia coli; assay: Antibacterial activity against Escherichia coli MTCC 443 assessed as growth inhibition at 12.5 to 1000 ug/mL after 24 hrs by broth dilution assay
[7] = tested on: Aspergillus niger; assay: Antifungal activity against Aspergillus niger assessed as growth inhibition at 12.5 to 1000 ug/mL after 48 hrs by broth dilution assay

Measured: growth inhibition (GI)

N#Cc1c(-c2ccccc2Cl)cc(-c2nc3ccccc3[nH]2)nc1N
inactive: [1] | [2] | [3] | [4] | [5] | [6] | [7]

Cc1cccc(-c2cc(-c3nc4ccccc4[nH]3)nc(N)c2C#N)c1
inactive: [1] | [2] | [3] | [4] | [5] | [6] | [7]

N#Cc1c(-c2cccc(O)c2)cc(-c2nc3ccccc3[nH]2)nc1N
inactive: [1] | [2] | [3] | [4] | [5] | [6] | [7]

N#Cc1c(-c2ccc(O)cc2)cc(-c2nc3ccccc3[nH]2)nc1N
inactive: [1] | [2] | [3] | [4] | [5] | [6] | [7]
